Measurements from patent publication US9266904B2, “6-bridged heteroaryldihydropyrimidines for the treatment and prophylaxis of hepatitis B virus infection” (priority 2013, dated 2016).
≈ marks a conversion by molar mass, not a printed value.

How the values were obtained:
[1] = test system: HBV; conditions: HBV infected transgenic mouse or humanized mouse models; cited from earlier work
[2] = test system: HepDE19 cells; experiment: Cytotoxicity (CCK-8 cell viability) and selectivity index; format: cell-based, human; conditions: CC50 value/EC50 value
Summary of the method: (§1)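 HepDE19 cells (5×10^3/well) were treated with compounds as for the EC50 runs and, after 5 days, given CCK-8 for 2 h at 37° C. Absorbance was read at OD450 and OD630, and CC50 was taken as the concentration killing 50% of host cells.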

[3] = as above; format: cell-based, human; conditions: human, HepDE19 cells; cytotoxicity, concentration resulting in death of 50% of host cells
Summary of the method: as §1

[4] = Lyophilisation solubility assay (Lysa); format: physicochemical; conditions: pH 6.5, aqueous buffer, thermodynamic from solid
Summary of the method: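 DMSO was evaporated from 10 mM stocks, and residues were taken up in 0.05 M phosphate buffer pH 6.5, stirred 1 h, shaken 2 h and left overnight. Filtrates were quantified by UV or HPLC-UV against a four-point calibration, in duplicate. Values are in μg/ml, with a lower-bound value when >80% dissolved.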

[5] = test system: CYP3A4; conditions: human, 24 h
Description: Human cryopreserved hepatocytes (Life Technologies, Carlsbad, USA) were thawed and cultured in collagen I coated 96-well plates with a density of 52,000 cells/well. After attachment, medium was changed and cells were pre-cultured overnight in hepatocyte maintenance medium (HMM; Lonza, Switzerland).
Test compounds were dosed to the cells next morning at an indicated concentration (up to 10 μM) in HMM culture media containing gentamycin and a constant 0.1% DMSO. Similarly, dilutions of the positive inducer compounds omeprazole (prototypical inducer of human CYP1A2; final concentrations: 1 and 10 μM), phenobarbital (prototypical inducer of human CYP2B6; final concentrations: 100 and 1000 μM) and rifampicin (prototypical inducer of human CYP3A4; final concentrations: 1 and 10 μM) were prepared from 1000 fold DMSO stock solutions in HMM containing gentamycin. Medium change was then performed and cells were exposed for 24 hours to test compounds, positive inducer compounds, or vehicle (0.1% DMSO), respectively.
At the end of the compound exposure period, medium was removed and cells lysed using 100 μL/well MagNA Pure LC RNA isolation tissue lysis buffer (Roche Diagnostics AG, Rotkreuz, Switzerland). Plates were then sealed and frozen at −80° C. until further workup.
mRNA isolation was performed using the MagNA Pure 96 system (Roche Diagnostics AG, Rotkreuz, Switzerland) and the respective cellular RNA large volume kit (Roche Diagnostics AG, Rotkreuz, Switzerland) from thawed samples diluted 1:1 with PBS. The volume of the cell lysis and an elution volume of 100 μL were used. 20 μL of the resulting mRNA suspension was then used for reverse transcription using 20 μL of the transcript or first stand cDNA synthesis kit (Roche prime Supply, Mannheim, Germany). The resulting cDNA was diluted with 40 μL of H2O before using for qRT-PCR. qRT-PCR was performed by using the forward and the reverse primer, the corresponding UPL (all from Microsynth, Balgach, Switzerland) and the Taqman Fast advanced master mix (Applied Biosystems), on an ABI 7900 machine (Applied Biosystems).
qRT-PCR Ct-values for the respective P450s were put into relation to the Ct-value of RN18S1 (microsynth, Balgach, Switzerland) of the same sample. Doing so, a respective Δct-value was calculated. Using the average of all Δct-values for the vehicle control samples, a ΔΔct-value was calculated for each sample (ΔΔct-value(sample)=Δct-value(sample)−average of Δct-value of all vehicle controls). The fold induction of the respective sample was calculated as 2^(−ΔΔct). The individual fold induction values were then averaged per treatment condition (usually n=3 biological replicates).
Relative induction values to the respective positive inducer compound condition (10 μM omeprazole for CYP1A2; 1000 μM Phenobarbital for CYP2B6; 10 μM rifampicin for CYP3A4) were then calculated from the fold induction values as follows: Relative induction(%)=100×(T−V)/(P−V)
T: fold induction of test compound condition
P: fold induction of positive inducer compound
V: fold induction of vehicle controls

[6] = Human microsomal clearance assay; format: in vitro ADME; conditions: human, 1 μM, pH 7.4
Summary of the method: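 Liver microsomes (0.5 mg/mL protein) were incubated with 1 μM compound at 37 °C, pH 7.4 phosphate, with an NADPH-regenerating system. Samples at 0-30 min were quenched and measured by LC-MS/MS for parent loss. No-NADPH controls were included.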

[7] = test system: HBV replication in HepG2.2.15 cells; experiment: Anti-HBV activity in vitro in HepG2.2.15 cells (extracellular HBV DNA by qPCR); format: cell-based; conditions: Hepatitis B virus, HepG2.2.15, Anti-HBV activity in HepG2.2.15 cells; read-out: EC50
Summary of the method: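 EC50 is derived from qPCR of extracellular viral DNA in culture supernatant after 5-day compound exposure. Cells (HepG2.2.15, stably carrying the HBV genome) were plated and incubated overnight at 37 °C before half-log dilution series were added at 0.5% final DMSO.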

## COC(=O)C1=C(C)NC(c2ncc(F)cc2F)=N[C@H]1c1ccc(F)cc1Cl [Bay 41-4109]
[1]
  in vivo efficacy (HBV DNA reduction): demonstrated in vivo efficacy with HBV DNA reduction

## COC(=O)C1=C(CN2C3COCC2CC(CC(=O)O)C3)NC(c2nccs2)=N[C@H]1c1ccc(F)cc1Cl (stereo partly drawn) [Example 24, (R)-6-(7-Carboxymethyl-3-oxa-9-aza-bicyclo[3.3.1]non-9-ylmethyl)-4-(2-chloro-4-fluoro-phenyl)-2-thiazol-2-yl-1,4-dihydro-pyrimidine-5-carboxylic acid methyl ester]
[2]
  Selectivity index (CC50/EC50): >7692
[3]
  CC50 at 5 days: > 100000 nM
[4]
  solubility thermodynamic: > 621 µg/mL
[5]
  % of Positive control (10 μM Rifampicin): 29%
[6]
  CLh: 2.6 mL/min/kg
[7]
  EC50: 13 nM

## CCOC(=O)C1=C(CN2C3COCC2CC(CC(=O)O)C3)NC(c2nccs2)=N[C@H]1c1ccc(F)cc1Cl (stereo partly drawn) [Example 26, (R)-6-(7-Carboxymethyl-3-oxa-9-aza-bicyclo[3.3.1]non-9-ylmethyl)-4-(2-chloro-4-fluoro-phenyl)-2-thiazol-2-yl-1,4-dihydro-pyrimidine-5-carboxylic acid ethyl ester]
[2]
  Selectivity index (CC50/EC50): 5231
[3]
  CC50 at 5 days: 68000 nM
[4]
  solubility thermodynamic: 470 µg/mL (≈ 835 µM)
[5]
  % of Positive control (10 μM Rifampicin): 36%
[6]
  CLh: 3.5 mL/min/kg
[7]
  EC50: 13 nM

## COC(=O)C1=C(CN2C3COCC2CC(NC(C)=O)C3)NC(c2nccs2)=N[C@H]1c1ccc(F)cc1Cl (stereo partly drawn) [Example 35, (R)-6-(7-Acetylamino-3-oxa-9-aza-bicyclo[3.3.1]non-9-ylmethyl)-4-(2-chloro-4-fluoro-phenyl)-2-thiazol-2-yl-1,4-dihydro-pyrimidine-5-carboxylic acid methyl ester]
[2]
  Selectivity index (CC50/EC50): 7813
[3]
  CC50 at 5 days: 50000 nM
[5]
  % of Positive control (10 μM Rifampicin): 20%
[6]
  CLh: 6.4 mL/min/kg
[7]
  EC50: 6 nM

## COC(=O)C1=C(CN2C3COCC2C(NC(C)=O)C3)NC(c2nccs2)=N[C@H]1c1ccc(F)cc1Cl (stereo partly drawn) [Example 48, Methyl (4R)-6-[(6-acetamido-3-oxa-8-azabicyclo[3.2.1]octan-8-yl)methyl]-4-(2-chloro-4-fluoro-phenyl)-2-thiazol-2-yl-1,4-dihydropyrimidine-5-carboxylate]
[4]
  solubility thermodynamic: 100 µg/mL (≈ 187 µM)
[5]
  % of Positive control (10 μM Rifampicin): 17%
[6]
  CLh: 4.8 mL/min/kg
[7]
  EC50: 19.4 nM

## COC(=O)C1=C(CN2[C@@H]3COC[C@H]2C[C@@H](NS(N)(=O)=O)C3)NC(c2nccs2)=N[C@H]1c1ccc(F)cc1Cl [Example 56, Methyl (4R)-4-(2-chloro-4-fluoro-phenyl)-6-[[(1R,5S)-7-endo-(sulfamoylamino)-3-oxa-9-azabicyclo[3.3.1]nonan-9-yl]methyl]-2-thiazol-2-yl-1,4-dihydropyrimidine-5-carboxylate]
[2]
  Selectivity index (CC50/EC50): 9766
[3]
  CC50 at 5 days: 43000 nM
[5]
  % of Positive control (10 μM Rifampicin): 23%
[6]
  CLh: 6.1 mL/min/kg
[7]
  EC50: 4.4 nM

## CCOC(=O)C1=C(CN2[C@@H]3COC[C@H]2C[C@H](CC(=O)O)C3)NC(c2nccs2)=N[C@H]1c1cccc(F)c1Cl [Example 66, Exo-2-[(1S,5R)-9-[[(4R)-4-(2-chloro-3-fluoro-phenyl)-5-ethoxycarbonyl-2-thiazol-2-yl-1,4-dihydropyrimidin-6-yl]methyl]-3-oxa-9-azabicyclo[3.3.1]nonan-7-yl]acetic acid]
[4]
  solubility thermodynamic: 390 µg/mL (≈ 693 µM)
[5]
  % of Positive control (10 μM Rifampicin): 6.2%
[6]
  CLh: 3.2 mL/min/kg
[7]
  EC50: 3.6 nM

## CCOC(=O)C1=C(CN2[C@@H]3COC[C@H]2C[C@H](CC(=O)O)C3)NC(c2nccs2)=N[C@H]1c1cccc(F)c1Br [Example 68, Exo-2-[(1S,5R)-9-[[(4R)-4-(2-bromo-3-fluoro-phenyl)-5-ethoxycarbonyl-2-thiazol-2-yl-1,4-dihydropyrimidin-6-yl]methyl]-3-oxa-9-azabicyclo[3.3.1]nonan-7-yl]acetic acid]
[4]
  solubility thermodynamic: 320 µg/mL (≈ 527 µM)
[5]
  % of Positive control (10 μM Rifampicin): 7.7%
[6]
  CLh: 3.5 mL/min/kg
[7]
  EC50: 3.8 nM

## CCOC(=O)C1=C(CN2[C@@H]3COC[C@H]2C[C@H](CC(=O)O)C3)NC(c2nccs2)=N[C@H]1c1ccc(F)c(F)c1Cl [Example 69, Exo-2-[(1S,5R)-9-[[(4R)-4-(2-chloro-3,4-difluoro-phenyl)-5-ethoxycarbonyl-2-thiazol-2-yl-1,4-dihydropyrimidin-6-yl]methyl]-3-oxa-9-azabicyclo[3.3.1]nonan-7-yl]acetic acid]
[2]
  Selectivity index (CC50/EC50): >32258
[3]
  CC50 at 5 days: > 100000 nM
[4]
  solubility thermodynamic: 203 µg/mL (≈ 349 µM)
[5]
  % of Positive control (10 μM Rifampicin): 21%
[6]
  CLh: 2.4 mL/min/kg
[7]
  EC50: 3.1 nM

## COC(=O)C1=C(CN2[C@@H]3COC[C@H]2C[C@H](CC(=O)O)C3)NC(c2nccs2)=N[C@H]1c1ccc(F)c(F)c1Cl [Example 73, Exo-2-[(1S,5R)-9-[[(4R)-4-(2-chloro-3,4-difluoro-phenyl)-5-methoxycarbonyl-2-thiazol-2-yl-1,4-dihydropyrimidin-6-yl]methyl]-3-oxa-9-azabicyclo[3.3.1]nonan-7-yl]acetic acid]
[2]
  Selectivity index (CC50/EC50): 24083
[3]
  CC50 at 5 days: 72000 nM
[4]
  solubility thermodynamic: > 654 µg/mL
[5]
  % of Positive control (10 μM Rifampicin): 21%
[6]
  CLh: 3.6 mL/min/kg
[7]
  EC50: 3 nM

## CCOC(=O)C1=C(CN2[C@@H]3COC[C@H]2C[C@H](CC(=O)O)C3)NC(c2nccs2)=N[C@H]1c1ccc(F)c(F)c1Br [Example 80, Exo-2-[(1S,5R)-9-[[(4R)-4-(2-bromo-3,4-difluoro-phenyl)-5-ethoxycarbonyl-2-thiazol-2-yl-1,4-dihydropyrimidin-6-yl]methyl]-3-oxa-9-azabicyclo[3.3.1]nonan-7-yl]acetic acid]
[2]
  Selectivity index (CC50/EC50): 22394
[3]
  CC50 at 5 days: 38000 nM
[4]
  solubility thermodynamic: 221 µg/mL (≈ 353 µM)
[5]
  % of Positive control (10 μM Rifampicin): 35%
[6]
  CLh: 4.6 mL/min/kg
[7]
  EC50: 1.7 nM

## COC(=O)C1=C(CN2[C@@H]3C[C@H](CC(=O)O)C[C@H]2C(F)(F)C3)NC(c2nccs2)=N[C@H]1c1cccc(F)c1Cl [Example 88, 2-[(1R,3S,5S)-8-[[(4R)-4-(2-chloro-3-fluoro-phenyl)-5-methoxycarbonyl-2-thiazol-2-yl-1,4-dihydropyrimidin-6-yl]methyl]-6,6-difluoro-8-azabicyclo[3.2.1]octan-3-yl]acetic acid]
[2]
  Selectivity index (CC50/EC50): 39662
[3]
  CC50 at 5 days: 52000 nM
[4]
  solubility thermodynamic: 120 µg/mL (≈ 211 µM)
[5]
  % of Positive control (10 μM Rifampicin): 39%
[6]
  CLh: 0.2 mL/min/kg
[7]
  EC50: 1.3 nM

## COC(=O)C1=C(CN2[C@@H]3C[C@H](CC(=O)O)C[C@H]2C(F)(F)C3)NC(c2nccs2)=N[C@H]1c1ccccc1Cl [Example 90, 2-[(1R,3S,5S)-8-[[(4R)-4-(2-chlorophenyl)-5-methoxycarbonyl-2-thiazol-2-yl-1,4-dihydropyrimidin-6-yl]methyl]-6,6-difluoro-8-azabicyclo[3.2.1]octan-3-yl]acetic acid]
[4]
  solubility thermodynamic: 230 µg/mL (≈ 417 µM)
[5]
  % of Positive control (10 μM Rifampicin): 37%
[6]
  CLh: 1.5 mL/min/kg
[7]
  EC50: 3.5 nM

## COC(=O)C1=C(CN2C3COCC2C(F)(F)[C@H](CC(=O)O)C3)NC(c2nccs2)=N[C@H]1c1ccc(F)cc1Cl (stereo partly drawn) [Example 126, 2-[(7S)-9-[[(4R)-4-(2-chloro-4-fluoro-phenyl)-5-methoxycarbonyl-2-thiazol-2-yl-1,4-dihydropyrimidin-6-yl]methyl]-6,6-difluoro-3-oxa-9-azabicyclo[3.3.1]nonan-7-yl]acetic acid]
[2]
  Selectivity index (CC50/EC50): >9709
[3]
  CC50 at 5 days: > 100000 nM
[4]
  solubility thermodynamic: > 605 µg/mL
[5]
  % of Positive control (10 μM Rifampicin): 17%
[6]
  CLh: 0 mL/min/kg
[7]
  EC50: 10.3 nM

## COC(=O)C1=C(CN2C3COCC2CC(CC(=O)O)C3)NC(c2nccs2)=N[C@H]1c1ccc(F)c(F)c1Cl (stereo partly drawn) [Example 135, Endo-2-[9-[[(4R)-4-(2-chloro-3,4-difluoro-phenyl)-5-methoxycarbonyl-2-thiazol-2-yl-1,4-dihydropyrimidin-6-yl]methyl]-3-oxa-9-azabicyclo[3.3.1]nonan-7-yl]acetic acid]
[2]
  Selectivity index (CC50/EC50): >15385
[3]
  CC50 at 5 days: > 100000 nM
[4]
  solubility thermodynamic: 533 µg/mL (≈ 940 µM)
[5]
  % of Positive control (10 μM Rifampicin): 27%
[6]
  CLh: 4.2 mL/min/kg
[7]
  EC50: 6.5 nM
